From patent US10577382B2, “Fused heterocyclic compound” (TAKEDA PHARMACEUTICAL COMPANY LIMITED, priority 2016, dated 2020)

What was measured:
[1] = tested on: HCT116 cells; experiment: Growth inhibitory activity using HCT116 cells (Cell Titer-Glo); type: cell-based, human; conditions: compound 1 μM, 3 days; for inhibition at 1 µM: Homo sapiens, HCT-116, 72 h, read-out: Cell growth inhibition ratio at compound concentration of 1 μM
Experimental: HCT 116 cells (ATCC) were seeded in a 384-well plate at a density of 6×10^2 cells/well, and cultured overnight in a cell culture medium McCoy's 5A (Thermo Fisher Scientific) containing 10% FBS (fetal bovine serum) and 1% penicillin/streptomycin. The dissolved test compound was added in the cell medium, and the cell medium was left standing in a CO2 incubator (37° C.) for 3 days. A Cell Titer-Glo solution (Promega Corporation) was added, the mixture was stirred at room temperature for 10 minutes, and the emission value was measured by Envision (PerkinElmer). The inhibition ratio (%) of HCT116 cell growth by the test compound was calculated in accordance with the following expression. Inhibition ratio (%)=(1−(count of test compound−blank)÷(control−blank))×100
The count of the HCT116 cell suspension without addition of the compound was described as a control, and the count without addition of the compound and addition of HCT116 cells was described as a blank. The concentration at which the inhibition ratio was 50% was defined as an IC50 value.

[2] = target: T1, CLK2 enzyme (Homo sapiens, UniProt P49760); experiment: Measurement of CLK2 inhibitory activity (LANCE time-resolved fluorescence, ULight-labeled MBP peptide); type: biochemical; conditions: compound 1 μM; for inhibition at 1 µM: ATP 1 mM, read-out: CLK2 activity inhibition ratio at compound concentration of 1 μM (ATP 1 mM)
T1 construct: purchased Thermo Fisher Scientific
T1 sequence (P49760 whole entry): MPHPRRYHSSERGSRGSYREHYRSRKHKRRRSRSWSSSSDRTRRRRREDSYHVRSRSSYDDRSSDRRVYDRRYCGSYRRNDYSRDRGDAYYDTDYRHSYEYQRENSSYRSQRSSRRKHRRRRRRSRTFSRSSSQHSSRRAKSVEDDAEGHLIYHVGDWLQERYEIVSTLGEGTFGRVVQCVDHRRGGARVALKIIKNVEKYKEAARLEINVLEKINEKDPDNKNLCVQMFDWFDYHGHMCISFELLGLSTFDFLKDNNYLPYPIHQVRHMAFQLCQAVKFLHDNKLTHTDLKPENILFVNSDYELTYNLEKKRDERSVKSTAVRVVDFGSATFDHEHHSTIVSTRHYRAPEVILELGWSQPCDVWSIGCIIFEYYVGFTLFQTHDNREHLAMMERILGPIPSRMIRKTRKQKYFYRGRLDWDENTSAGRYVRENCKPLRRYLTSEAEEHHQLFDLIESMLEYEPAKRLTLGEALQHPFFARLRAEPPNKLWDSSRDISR
Experimental: A test compound dissolved in DMSO was added to a reaction solution (50 mM HEPES (pH: 7.5), 10 mM MgCl2, 1 mM EGTA, 2 mM DTT, 0.01% Tween 20, 0.01% BSA) containing a CLK2 enzyme (Thermo Fisher Scientific) and an ULight-labeled MBP peptide (PerkinElmer), and the mixture was then reacted at room temperature for 10 minutes. An ATP solution was added to a final concentration of 1 mM to initiate an enzyme reaction, and the reaction was carried out at room temperature for 60 minutes. A europium-labeled anti-phosphorylated MBP antibody (PerkinElmer) and a LANCE Detection buffer (PerkinElmer) containing EDTA with a final concentration of 20 mM were added to stop the reaction, the mixture was left standing for 60 minutes, and the time-resolved fluorescence value (excitation 320 nm, and emission 615 nm and 665 nm) was measured by Envision (PerkinElmer). The inhibition ratio (%) of CLK2 by the test compound was calculated in accordance with the following expression. Inhibition ratio (%)=(1−(count of test compound−blank)÷(control−blank))×100
The count of the CLK2 enzyme reaction solution without addition of the compound was described as a control, and the count without addition of the compound and addition of the CLK2 enzyme was described as a blank. The concentration at which the inhibition ratio was 50% was defined as an IC50 value.

| inhibition at 1 µM [2] | CLK2 activity inhibition ratio at compound concentration of 1 μM (ATP 1 mM) [2] | Compound | inhibition at 1 µM [1] | Cell growth inhibition ratio at compound concentration of 1 μM [1] |
| --- | --- | --- | --- | --- |
| 100% |  | COc1ccnc2cnn(-c3cnc4nc(C)n(Cc5cccc(F)c5)c4c3)c12 [Example 105, 1-(1-(3-fluorobenzyl)-2-methyl-1H-imidazo[4,5-b]pyridin-6-yl)-7-methoxy-1H-pyrazolo[4,3-b]pyridine] | 96% |  |
| 100% |  | COc1ncnn2ccc(-c3cnc4nc(C)n(Cc5cccc(F)c5)c4c3)c12 [Example 175, 1-(3-fluorobenzyl)-6-(4-methoxypyrrolo[2,1-f][1,2,4]triazin-5-yl)-2-methyl-1H-imidazo[4,5-b]pyridine] | 91% |  |
| 100% |  | COc1ncnn2ccc(-c3cnc4nc(CO)n(Cc5cc(F)cc(F)c5)c4c3)c12 [Example 176, (1-(3,5-difluorobenzyl)-6-(4-methoxypyrrolo[2,1-f][1,2,4]triazin-5-yl)-1H-imidazo[4,5-b]pyridin-2-yl)methanol] | 85% |  |
| 99% |  | COc1ncnn2ccc(-c3cnc4nc(C)n(Cc5nc(C)no5)c4c3)c12 [Example 186, 6-(4-methoxypyrrolo[2,1-f][1,2,4]triazin-5-yl)-2-methyl-1-((3-methyl-1,2,4-oxadiazol-5-yl)methyl)-1H-imidazo[4,5-b]pyridine] | 96% |  |
| 100% |  | COc1ncnn2ccc(-c3cnc4nc(C)n(Cc5nnc(C)o5)c4c3)c12 [Example 193, 6-(4-methoxypyrrolo[2,1-f][1,2,4]triazin-5-yl)-2-methyl-1-((5-methyl-1,3,4-oxadiazol-2-yl)methyl)-1H-imidazo[4,5-b]pyridine] | 98% |  |
| 99% |  | COc1ncnn2ccc(-c3cnc4nc(C)n(Cc5noc(C)n5)c4c3)c12 [Example 214, 6-(4-methoxypyrrolo[2,1-f][1,2,4]triazin-5-yl)-2-methyl-1-((5-methyl-1,2,4-oxadiazol-3-yl)methyl)-1H-imidazo[4,5-b]pyridine] | 96% |  |
| 100% |  | COc1ncnn2ccc(-c3cnc4nc(C)n(Cc5cc(C)no5)c4c3)c12 [Example 215] | 95% |  |
| 100% |  | COc1ncnn2ccc(-c3cnc4nc(C)n(Cc5nc(C)ns5)c4c3)c12 [Example 229, 6-(4-methoxypyrrolo[2,1-f][1,2,4]triazin-5-yl)-2-methyl-1-((3-methyl-1,2,4-thiadiazol-5-yl)methyl)-1H-imidazo[4,5-b]pyridine] | 97% |  |
| 100% |  | COc1ncnn2ccc(-c3cnc4nc(C)n(Cc5nnc(C(F)F)o5)c4c3)c12 [Example 242, 1-((5-(difluoromethyl)-1,3,4-oxadiazol-2-yl)methyl)-6-(4-methoxypyrrolo[2,1-f][1,2,4]triazin-5-yl)-2-methyl-1H-imidazo[4,5-b]pyridine] | 94% |  |
| 100% |  | COc1ncnn2ccc(-c3cnc4nc(C)n(Cc5nnc(C(C)(C)F)o5)c4c3)c12 [Example 277, 1-((5-(2-fluoropropan-2-yl)-1,3,4-oxadiazol-2-yl)methyl)-6-(4-methoxypyrrolo[2,1-f][1,2,4]triazin-5-yl)-2-methyl-1H-imidazo[4,5-b]pyridine] | 95% |  |

More lines, now with the values behind:

| Compound | inhibition at 1 µM [2] | CLK2 activity inhibition ratio at compound concentration of 1 μM (ATP 1 mM) [2] | inhibition at 1 µM [1] | Cell growth inhibition ratio at compound concentration of 1 μM [1] |
| --- | --- | --- | --- | --- |
| COc1ncnc2ccn(-c3cnc4nc(C)n(Cc5cc(F)cc(F)c5)c4c3)c12 [Example 7, 1-(3,5-difluorobenzyl)-6-(4-methoxy-5H-pyrrolo[3,2-d]pyrimidin-5-yl)-2-methyl-1H-imidazo[4,5-b]pyridine] | 100% |  | 92% |  |
| COc1ccnc2ccn(-c3cnc4nc(C)n(Cc5cccc(F)c5)c4c3)c12 [Example 102, 1-(3-fluorobenzyl)-6-(7-methoxy-1H-pyrrolo[3,2-b]pyridin-1-yl)-2-methyl-1H-imidazo[4,5-b]pyridine] | 100% |  | 95% |  |
| COc1cnc2ccn(-c3cnc4nc(C)n(Cc5cccc(F)c5)c4c3)c2n1 [Example 110, 1-(3-fluorobenzyl)-6-(3-methoxy-5H-pyrrolo[2,3-b]pyrazin-5-yl)-2-methyl-1H-imidazo[4,5-b]pyridine] | 100% |  | 92% |  |
| COc1nc2ncc(-n3ccc4ncc(C(C)O)nc43)cc2n1Cc1cccc(F)c1 (stereo not shown) [Example 160, 1-(5-(1-(3-fluorobenzyl)-2-methoxy-1H-imidazo[4,5-b]pyridin-6-yl)-5H-pyrrolo[2,3-b]pyrazin-3-yl)ethanol] |  | 100% |  | 98% |
| COc1nc2ncc(-n3ccc4ncc(C(C)O)nc43)cc2n1Cc1cccc(F)c1 (stereo not shown) [Example 161, 1-(5-(1-(3-fluorobenzyl)-2-methoxy-1H-imidazo[4,5-b]pyridin-6-yl)-5H-pyrrolo[2,3-b]pyrazin-3-yl)ethanol] | 100% |  | 97% |  |
| COc1ncnn2ccc(-c3cnc4nc(C)n(Cc5nnc(C(C)(F)F)o5)c4c3)c12 [Example 274] | 100% |  | 93% |  |
| COc1ncnn2ccc(-c3cnc4nc(C)n(Cc5nnc(C6(F)CC6)o5)c4c3)c12 [Example 283, 1-((5-(1-fluorocyclopropyl)-1,3,4-oxadiazol-2-yl)methyl)-6-(4-methoxypyrrolo[2,1-f][1,2,4]triazin-5-yl)-2-methyl-1H-imidazo[4,5-b]pyridine] | 100% |  | 96% |  |
